# Source: patent US20240197726A1, “NOVEL TETRAHYDROISOQUINOLINE ALKALOID COMPOUND CONTAINING MACROCYCLE” (THE UNIVERSITY OF TOKYO, priority 2021, published 2024)
# Read-outs that look alike come from different tables or passages of the source.
# Key:
# Assay type in all cases: cell-based
# [1] = tested on: LOX-IMVI melanoma cells; experiment: antitumor activity, sulforhodamine B cell growth assay, LOX-IMVI; details: Homo sapiens
# Experimental: (§1) The THIQ compound containing a macrocyclic structure of the present invention was administered to various cancer cell lines, and the antitumor activity (Go value) was observed. Specifically, verification was performed according to the literature (Yamori, T.; Matsunaga, A.; Sato, S.; Yamazaki, K.; Komi, A.; Ishizu, K. et al. Cancer Res. 1999, 59, 4042) by the following procedure.
# (§2) Cells were plated at an appropriate density in a 96-well plate in RPMI 1640 together with 5% fetal bovine serum, and adhered overnight. The cells were exposed to a drug for 48 hours. Then, according to the sulforhodamine B assay described by Skehan et al (Skehan P., Storeng R., Scudiero D., Monks A., McMahon J., Vistica D., Warren J. T., Bokesch H., Kenney S., Boyd M. R. J Natl. Cancer Inst, 1990, 82, 1107-1112), the cell growth rate was measured. The absorbance of the control well (C) and the test well (T) was measured at 525 nm. In addition, the time at which the drug was added was set as time 0, and the absorbance for the test well (T0) was measured. Using these measured values, the cell growth inhibitory effect (% growth=PG) was calculated by the following formula at each concentration of the drug.
# (§3) (T<T0): PG=100×[(T−T0)/T]
# (§4) The PG values determined above for each cell line were plotted against the concentration (logarithm) on a semi-logarithmic graph, and summarized for each visceral cancer. Concentrations at which the dose-response curve of each cell line crossed the horizontal line of PG=50%, 0%, or −50% were calculated. These concentrations were defined as Log GI50, Log TGI, and Log LC50. Actually, using two data points of the drug concentration before and after crossing each horizontal line, the drug concentration (logarithmic value) at the intersection of the straight line connecting the two points and the horizontal line for each PG was calculated.
# [2] = tested on: MDA-MB-231 breast cancer cells; experiment: antitumor activity, sulforhodamine B cell growth assay, MDA-MB-231; details: Homo sapiens
# Experimental: as §1, §2, §3, §4
# [3] = tested on: HCT-15 colorectal cancer cells; experiment: antitumor activity, sulforhodamine B cell growth assay, HCT-15; details: Homo sapiens
# Experimental: as §1, §2, §3, §4
# [4] = tested on: NCI-H460 lung cancer cells; experiment: antitumor activity, sulforhodamine B cell growth assay, NCI-H460; details: Homo sapiens
# Experimental: as §1, §2, §3, §4
# [5] = tested on: DMS273 lung cancer cells; experiment: antitumor activity, sulforhodamine B cell growth assay, DMS273; details: Homo sapiens, DMS-273
# Experimental: as §1, §2, §3, §4
# [6] = tested on: OVCAR-5 cervical cancer cells; experiment: antitumor activity, sulforhodamine B cell growth assay, OVCAR-5; details: Homo sapiens
# Experimental: as §1, §2, §3, §4
# [7] = tested on: OVCAR-4 cancer cells; experiment: antitumor activity, sulforhodamine B cell growth assay, OVCAR-4; details: Homo sapiens
# Experimental: as §1, §2, §3, §4
# [8] = tested on: HBC-4 breast cancer cells; experiment: antitumor activity, sulforhodamine B cell growth assay, HBC-4; details: HBC4
# Experimental: as §1, §2, §3, §4
# [9] = tested on: HBC-5 breast cancer cells; experiment: antitumor activity, sulforhodamine B cell growth assay, HBC-5; details: HBC5
# Experimental: as §1, §2, §3, §4
# [10] = tested on: RXF-631L kidney cancer cells; experiment: antitumor activity, sulforhodamine B cell growth assay, RXF-631L
# Experimental: as §1, §2, §3, §4
# [11] = tested on: SK-OV-3 cancer cells; experiment: antitumor activity, sulforhodamine B cell growth assay, SK-OV-3; details: Homo sapiens
# Experimental: as §1, §2, §3, §4
# [12] = tested on: SF-268 central nervous system cancer cells; experiment: antitumor activity, sulforhodamine B cell growth assay, SF-268; details: Homo sapiens
# Experimental: as §1, §2, §3, §4
# [13] = tested on: ACHN kidney cancer cells; experiment: antitumor activity, sulforhodamine B cell growth assay, ACHN; details: Homo sapiens
# Experimental: as §1, §2, §3, §4
# [14] = tested on: DU-145 prostate cancer cells; experiment: antitumor activity, sulforhodamine B cell growth assay, DU-145; details: Homo sapiens
# Experimental: as §1, §2, §3, §4
# [15] = tested on: NCI-H522 lung cancer cells; experiment: antitumor activity, sulforhodamine B cell growth assay, NCI-H522; details: Homo sapiens
# Experimental: as §1, §2, §3, §4
# [16] = tested on: SF-295 central nervous system cancer cells; experiment: antitumor activity, sulforhodamine B cell growth assay, SF-295; details: Homo sapiens
# Experimental: as §1, §2, §3, §4
# [17] = tested on: HCC2998 colorectal cancer cells; experiment: antitumor activity, sulforhodamine B cell growth assay, HCC2998; details: Homo sapiens, HCC 2998
# Experimental: as §1, §2, §3, §4
# [18] = tested on: SNB-78 central nervous system cancer cells; experiment: antitumor activity, sulforhodamine B cell growth assay, SNB-78; details: Homo sapiens
# Experimental: as §1, §2, §3, §4
# [19] = tested on: HT-29 colorectal cancer cells; experiment: antitumor activity, sulforhodamine B cell growth assay, HT-29; details: Homo sapiens
# Experimental: as §1, §2, §3, §4
# [20] = tested on: U251 central nervous system cancer cells; experiment: antitumor activity, sulforhodamine B cell growth assay, U251; details: Homo sapiens, U-251
# Experimental: as §1, §2, §3, §4
# [21] = tested on: NCI-H23 lung cancer cells; experiment: antitumor activity, sulforhodamine B cell growth assay, NCI-H23; details: Homo sapiens
# Experimental: as §1, §2, §3, §4
smiles,measurement,setting,value
CC1=C(C)C(=O)C2=C(CC3(C)[C@H]4c5c(cc(C)c(C)c5C)C[C@@](C)(C(C)N3[C@H]2CNC(=O)C(C)C)N4C)C1=O (stereo partly drawn) [drawing 160],GI50,"[1]; LOX-IMVI melanoma cells, read-out: antitumor activity GI50 value: 50% growth inhibitory concentration",0.061 µM
same,GI50,"[2]; MDA-MB-231 breast cancer cells, read-out: antitumor activity GI50 value: 50% growth inhibitory concentration",0.13 µM
same,GI50,"[3]; HCT-15 colorectal cancer cells, read-out: antitumor activity GI50 value: 50% growth inhibitory concentration",0.39 µM
same,GI50,"[4]; NCI-H460, NCl--H460 lung cancer cells, read-out: antitumor activity GI50 value: 50% growth inhibitory concentration",0.4 µM
same,GI50,"[5]; DMS273 lung cancer cells, read-out: antitumor activity GI50 value: 50% growth inhibitory concentration",0.27 µM
same,GI50,"[6]; OVCAR-5 cervical cancer cells, read-out: antitumor activity GI50 value: 50% growth inhibitory concentration",0.39 µM
same,GI50,"[7]; OVCAR-4 cervical cancer cells, read-out: antitumor activity GI50 value: 50% growth inhibitory concentration",0.29 µM
same,GI50,"[8]; HBC-4 breast cancer cells, read-out: antitumor activity GI50 value: 50% growth inhibitory concentration",0.059 µM
same,GI50,"[9]; HBC-5 breast cancer cells, read-out: antitumor activity GI50 value: 50% growth inhibitory concentration",0.062 µM
same,GI50,"[10]; RXF-631L kidney cancer cells, read-out: antitumor activity GI50 value: 50% growth inhibitory concentration",0.4 µM
same,GI50,"[11]; SK-OV-3 cervical cancer cells, read-out: antitumor activity GI50 value: 50% growth inhibitory concentration",0.54 µM
same,GI50,"[12]; SF-268 central nervous system cancer cells, read-out: antitumor activity GI50 value: 50% growth inhibitory concentration",0.37 µM
same,GI50,"[13]; ACHN kidney cancer cells, read-out: antitumor activity GI50 value: 50% growth inhibitory concentration",0.32 µM
same,GI50,"[14]; DU-145 prostate cancer cells, read-out: antitumor activity GI50 value: 50% growth inhibitory concentration",0.49 µM
same,GI50,"[15]; NCI-H522, NCl-H522 lung cancer cells, read-out: antitumor activity GI50 value: 50% growth inhibitory concentration",0.043 µM
same,GI50,"[16]; SF-295 central nervous system cancer cells, read-out: antitumor activity GI50 value: 50% growth inhibitory concentration",0.5 µM
same,GI50,"[17]; HCC2998 colorectal cancer cells, read-out: antitumor activity GI50 value: 50% growth inhibitory concentration",0.35 µM
same,GI50,"[18]; SNB-78 central nervous system cancer cells, read-out: antitumor activity GI50 value: 50% growth inhibitory concentration",0.063 µM
same,GI50,"[19]; HT-29 colorectal cancer cells, read-out: antitumor activity GI50 value: 50% growth inhibitory concentration",0.19 µM
same,GI50,"[20]; U251 central nervous system cancer cells, read-out: antitumor activity GI50 value: 50% growth inhibitory concentration",0.37 µM
same,GI50,"[21]; NCI-H23, NCl-H23 lung cancer cells, read-out: antitumor activity GI50 value: 50% growth inhibitory concentration",0.29 µM
C#CCN1C/C=C/C(=C)COc2c(C)c3c(c4c2C[C@H]2[C@H]5c6c(cc(C)c(OC)c6O)C[C@@H]([C@H](C#N)N2C4CNC(=O)[C@@H]1C)N5C)OCO3 [Compound 35],GI50,"[1]; LOX-IMVI, drug exposure 48 hours, read-out: GI50 value: 50% growth inhibitory concentration",0.0017 µM
same,GI50,"[2]; MDA-MB-231, drug exposure 48 hours, read-out: GI50 value: 50% growth inhibitory concentration",0.0027 µM
same,GI50,"[3]; HCT-15, drug exposure 48 hours, read-out: GI50 value: 50% growth inhibitory concentration",0.0045 µM
same,GI50,"[4]; NCI-H460, drug exposure 48 hours, read-out: GI50 value: 50% growth inhibitory concentration",0.0034 µM
same,GI50,"[5]; DMS273, drug exposure 48 hours, read-out: GI50 value: 50% growth inhibitory concentration",0.0025 µM
same,GI50,"[6]; OVCAR-5, drug exposure 48 hours, read-out: GI50 value: 50% growth inhibitory concentration",0.0033 µM
same,GI50,"[7]; OVCAR-4, drug exposure 48 hours, read-out: GI50 value: 50% growth inhibitory concentration",0.0036 µM
same,GI50,"[8]; HBC-4, drug exposure 48 hours, read-out: GI50 value: 50% growth inhibitory concentration",0.0022 µM
same,GI50,"[9]; HBC-5, drug exposure 48 hours, read-out: GI50 value: 50% growth inhibitory concentration",0.0027 µM
same,GI50,"[10]; RXF-631L, drug exposure 48 hours, read-out: GI50 value: 50% growth inhibitory concentration",0.0029 µM
same,GI50,"[11]; SK-OV-3, drug exposure 48 hours, read-out: GI50 value: 50% growth inhibitory concentration",0.0065 µM
same,GI50,"[12]; SF-268, drug exposure 48 hours, read-out: GI50 value: 50% growth inhibitory concentration",0.0033 µM
same,GI50,"[13]; ACHN, drug exposure 48 hours, read-out: GI50 value: 50% growth inhibitory concentration",0.0031 µM
same,GI50,"[14]; DU-145, drug exposure 48 hours, read-out: GI50 value: 50% growth inhibitory concentration",0.0038 µM
same,GI50,"[15]; NCI-H522, drug exposure 48 hours, read-out: GI50 value: 50% growth inhibitory concentration",0.0011 µM
same,GI50,"[16]; SF-295, drug exposure 48 hours, read-out: GI50 value: 50% growth inhibitory concentration",0.0038 µM
same,GI50,"[17]; HCC2998, drug exposure 48 hours, read-out: GI50 value: 50% growth inhibitory concentration",0.0036 µM
same,GI50,"[18]; SNB-78, drug exposure 48 hours, read-out: GI50 value: 50% growth inhibitory concentration",0.0034 µM
same,GI50,"[19]; HT-29, drug exposure 48 hours, read-out: GI50 value: 50% growth inhibitory concentration",0.0032 µM
same,GI50,"[20]; U251, drug exposure 48 hours, read-out: GI50 value: 50% growth inhibitory concentration",0.0025 µM
same,GI50,"[21]; NCI-H23, drug exposure 48 hours, read-out: GI50 value: 50% growth inhibitory concentration",0.0035 µM
